For three molecules, IC50 and inhibition results are on record in ChEMBL document CHEMBL4813963, “Discovery of pyrazolo-thieno[3,2-d]pyrimidinylamino-phenyl acetamides as type-II pan-tropomyosin receptor kinase (TRK) inhibitors: Design, synthesis, and biological evaluation” (Eur J Med Chem, 2021).

Molecules are shown by their SMILES.

For assay [1], the system named is KM12. Briefly: Cytotoxicity against human KM12 cells assessed as reduction in cell viability incubated for 72 hrs by resazurin based assay. The format is functional. The conditions noted are these: KM12, 72 h. Background: Alamar Blue is a resazurin reagent that responds to reducing activity.
Assay [2] addresses T1, High affinity nerve growth factor receptor (Homo sapiens, UniProt P04629). Briefly: Inhibition of recombinant His-tagged human TRKA (441 to 796 residues) expressed in baculovirus expression system at 20 uM using 5-FAM-EEPLYWSFPAKKK-CONH2 as substrate preincubated for 1 hr followed by substrate addition in presence of ATP by mobility shift assay relative to control.
Target sequence in this assay (P04629 33-796 limits assumed): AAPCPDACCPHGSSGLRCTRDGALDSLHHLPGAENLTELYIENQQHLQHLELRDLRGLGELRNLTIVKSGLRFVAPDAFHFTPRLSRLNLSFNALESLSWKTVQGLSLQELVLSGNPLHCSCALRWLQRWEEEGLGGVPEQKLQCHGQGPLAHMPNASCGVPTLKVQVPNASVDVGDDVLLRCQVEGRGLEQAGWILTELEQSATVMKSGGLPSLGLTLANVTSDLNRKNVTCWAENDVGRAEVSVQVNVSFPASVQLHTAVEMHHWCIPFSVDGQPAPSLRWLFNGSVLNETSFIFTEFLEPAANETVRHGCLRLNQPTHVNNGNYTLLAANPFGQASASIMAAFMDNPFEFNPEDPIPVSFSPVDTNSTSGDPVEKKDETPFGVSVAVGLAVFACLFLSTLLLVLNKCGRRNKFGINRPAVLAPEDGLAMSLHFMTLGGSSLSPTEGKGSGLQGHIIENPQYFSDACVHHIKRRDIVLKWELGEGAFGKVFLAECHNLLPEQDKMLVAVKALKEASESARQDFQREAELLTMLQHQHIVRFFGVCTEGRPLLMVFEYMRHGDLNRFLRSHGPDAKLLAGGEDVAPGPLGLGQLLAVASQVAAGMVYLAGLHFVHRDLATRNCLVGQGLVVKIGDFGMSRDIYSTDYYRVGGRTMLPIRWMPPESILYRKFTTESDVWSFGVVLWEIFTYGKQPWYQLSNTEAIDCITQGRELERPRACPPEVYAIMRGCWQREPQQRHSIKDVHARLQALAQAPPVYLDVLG
The target of assay [3] is T1, High affinity nerve growth factor receptor. The assay is described as follows: Inhibition of recombinant His-tagged human TRKA (441 to 796 residues) expressed in baculovirus expression system using 5-FAM-EEPLYWSFPAKKK-CONH2 as substrate preincubated for 1 hr followed by substrate addition in presence of ATP by mobility shift assay.
Target sequence in this assay (P04629 whole entry, the tested form may be a part): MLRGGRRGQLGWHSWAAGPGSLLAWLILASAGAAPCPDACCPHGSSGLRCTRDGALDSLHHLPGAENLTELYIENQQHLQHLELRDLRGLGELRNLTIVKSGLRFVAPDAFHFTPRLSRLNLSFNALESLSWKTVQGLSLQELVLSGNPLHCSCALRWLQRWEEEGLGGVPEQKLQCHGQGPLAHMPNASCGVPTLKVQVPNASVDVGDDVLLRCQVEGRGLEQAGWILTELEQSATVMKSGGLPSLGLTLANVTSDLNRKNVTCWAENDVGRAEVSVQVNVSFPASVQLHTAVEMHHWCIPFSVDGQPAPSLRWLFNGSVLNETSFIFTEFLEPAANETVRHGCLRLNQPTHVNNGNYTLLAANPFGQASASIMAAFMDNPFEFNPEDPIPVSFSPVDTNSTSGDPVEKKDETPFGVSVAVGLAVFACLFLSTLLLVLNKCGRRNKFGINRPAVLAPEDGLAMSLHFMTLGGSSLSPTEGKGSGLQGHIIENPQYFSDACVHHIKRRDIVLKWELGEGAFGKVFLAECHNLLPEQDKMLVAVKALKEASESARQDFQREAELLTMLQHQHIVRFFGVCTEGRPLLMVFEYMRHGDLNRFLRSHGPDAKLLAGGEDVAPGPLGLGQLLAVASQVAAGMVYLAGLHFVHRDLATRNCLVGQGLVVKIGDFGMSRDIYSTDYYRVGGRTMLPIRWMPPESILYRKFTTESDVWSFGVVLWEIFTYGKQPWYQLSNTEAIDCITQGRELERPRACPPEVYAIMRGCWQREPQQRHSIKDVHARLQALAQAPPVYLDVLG

As a reminder, the IC50 is the concentration that inhibits the measured activity by half. Broadly, the inhibition is the change of the read-out against control, counted positive when it falls. `COc1ccc(Nc2ncnc3ccsc23)cc1`: the IC50 in assay [1] was determined as 103 µM. Besides, in assay [2], the inhibition is 18%.
Taken in the same sequence, the figures for `CC(C)(C)c1cc(NC(=O)Cc2ccc(-c3ncnc4ccsc34)cc2)no1` were 86.5 µM and 18%.
Turning to `O=C(Cc1ccc(Nc2ncnc3ccsc23)cc1)N[C@@H]1CCCC[C@@H]1O`, the IC50 in assay [3] is 41.2 µM; in assay [1] it was above 200 µM.
